System: colistin (polymyxin E, or PME) resistant bacterium S. maltophilia
Experiment: Spot test on lawn of colistin resistant bacterium
Assay type: cell-based
Settings: 10 μL spotted, 37° C., 2 days

## O=C([O-])CC(O)(CC(=O)[O-])C(=O)[O-].[Na+].[Na+].[Na+] [Trisodium citrate]
  activity / kill of S. maltophilia lawn: did not work as well as CTAC
